Eleven compounds from patent publication US7067519B2 (priority 2002, dated 2006) can be followed below.

SMILES strings stand for the structures.

Experiment [1] addresses T1, human orexin-1 receptor (Homo sapiens, UniProt O43613).
T1 construct: expressed in transfected cells; host or cells: CHO cells (G418 selection)
T1 sequence (O43613 1-425): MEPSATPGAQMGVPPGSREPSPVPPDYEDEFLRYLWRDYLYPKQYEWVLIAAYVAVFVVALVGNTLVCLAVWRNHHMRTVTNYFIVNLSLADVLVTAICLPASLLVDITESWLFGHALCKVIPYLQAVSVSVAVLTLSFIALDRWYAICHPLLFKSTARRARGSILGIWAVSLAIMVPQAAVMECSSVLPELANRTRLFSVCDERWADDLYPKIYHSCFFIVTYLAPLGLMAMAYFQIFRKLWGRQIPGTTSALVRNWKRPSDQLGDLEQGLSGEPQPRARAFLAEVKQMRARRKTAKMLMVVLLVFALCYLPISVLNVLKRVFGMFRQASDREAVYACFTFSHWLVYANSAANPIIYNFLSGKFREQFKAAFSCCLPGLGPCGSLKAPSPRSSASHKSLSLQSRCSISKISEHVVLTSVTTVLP
The experiment in a line: Intracellular calcium measurement (FLIPR), OX1 receptor antagonistic activity. The class given is cell-based. The following applies: CHO cells expressing human orexin-1 receptor, agonist 10 nM human orexin-A, fluo-3 calcium. As to the method:
(§1) Determination of OX1 and OX2 Receptor Antagonistic Activities
(§2) The OX1 and OX2 receptor antagonistic activity of the compounds of formula (I) was determined in accordance with the following experimental method.
(§3) Intracellular Calcium Measurements
(§4) Chinese hamster ovary (CHO) cells expressing the human orexin-1 receptor or the human orexin-2 receptor, were grown in culture medium (Ham F-12 with L-Glutamine) containing 300 μg/ml G418, 100 U/ml penicillin, 100 μg/ml streptomycin and 10% inactivated foetal calf serum (FCS).
(§5) The cells were seeded at 80'000 cells/well into 96-well black clear bottom sterile plates (Costar) which had been precoated with 1% gelatine in Hanks' Balanced Salt Solution (HBSS). All reagents were from Gibco BRL.
(§6) The seeded plates were incubated overnight at 37° C. in 5% CO2.
(§7) Human orexin-A as an agonist was prepared as 1 mM stock solution in methanol:water (1:1), diluted in HBSS containing 0.1% bovine serum albumin (BSA) and 2 mM HEPES for use in the assay at a final concentration of 10 nM.
(§8) Antagonists were prepared as 10 mM stock solution in DMSO, then diluted in 96-well plates, first in DMSO, then in HBSS containing 0.1% bovine serum albumin (BSA) and 2 mM HEPES.
(§9) On the day of the assay, 100 μl of loading medium (HBSS containing 1% FCS, 2 mM HEPES, 5 mM probenecid (Sigma) and 3 μM of the fluorescent calcium indicator fluo-3 AM (1 mM stock solution in DMSO with 10% pluronic acid) (Molecular Probes) was added to each well.
(§10) The 96-well plates were incubated for 60 min at 37° C. in 5% CO2. The loading solution was then aspirated and cells were washed 3 times with 200 μl HBSS containing 2.5 mM probenecid, 0.1% BSA, 2 mM HEPES. 100 μl of that same buffer was left in each well. Within the Fluorescent Imaging Plate Reader (FLIPR, Molecular Devices), antagonists were added to the plate in a volume of 50 μl, incubated for 20 min and finally 100 μl of
(§11) agonist was added. Fluorescence was measured for each well at 1 second intervals, and the height of each fluorescence peak was compared to the height of the fluorescence peak induced by 10 nM orexin-A with buffer in place of antagonist. For each antagonist, IC50 value (the concentration of compound needed to inhibit 50% of the agonistic response) was determined.

Experiment [2] addresses T2, human orexin-2 receptor (Homo sapiens, UniProt O43614).
T2 construct: expressed in transfected cells; host or cells: CHO cells (G418 selection)
T2 sequence (O43614 1-444): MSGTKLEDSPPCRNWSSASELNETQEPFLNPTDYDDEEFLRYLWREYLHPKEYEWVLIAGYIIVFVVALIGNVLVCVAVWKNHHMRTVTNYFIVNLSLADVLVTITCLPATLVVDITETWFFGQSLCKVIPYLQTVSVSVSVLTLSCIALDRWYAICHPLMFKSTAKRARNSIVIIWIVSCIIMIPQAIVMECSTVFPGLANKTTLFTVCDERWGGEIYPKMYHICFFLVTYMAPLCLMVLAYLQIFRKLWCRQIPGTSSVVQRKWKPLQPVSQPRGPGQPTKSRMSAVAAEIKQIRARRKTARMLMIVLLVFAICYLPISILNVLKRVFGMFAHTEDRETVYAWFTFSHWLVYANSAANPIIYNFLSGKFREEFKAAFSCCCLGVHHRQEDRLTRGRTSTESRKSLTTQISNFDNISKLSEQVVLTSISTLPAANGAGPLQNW
The experiment in a line: Intracellular calcium measurement (FLIPR), OX2 receptor antagonistic activity. The following applies: CHO cells expressing human orexin-2 receptor, agonist 10 nM human orexin-A, fluo-3 calcium. The class given is cell-based. As to the method: as §1, §2, §3, §4, §5, §6, §7, §8, §9, §10, §11
A general note: Calcium assays in cells follow changes in intracellular calcium, usually with a dye or a luminescent sensor.

A word on the IC50: it is the concentration that gives 50% inhibition. With `CCOc1ccccc1NC(=O)N(C(C)c1ccccc1)C1CCn2c1nc1ccccc1c2=O` (stereo not shown) [Example 3, 3-(2-Ethoxy-phenyl)-1-(9-oxo-1,2,3,9-tetrahydro-pyrrolo[2,1-b]quinazolin-3-yl)-1-(1-phenyl-ethyl)-urea], the values for the IC50 in experiment [1] and in experiment [2] were 115 nM and 79 nM, respectively.

Turning to `CC(c1ccccc1)N(C(=O)Nc1ccccc1OC(F)(F)F)C1CCn2c1nc1cc(F)ccc1c2=O` (stereo not shown) [Example 7, 1-(6-Fluoro-9-oxo-1,2,3,9-tetrahydro-pyrrolo[2,1-b]quinazolin-3-yl)-1-(1-phenyl-ethyl)-3-(2-trifluoromethoxy-phenyl)-urea], the concentration for half-maximal inhibition (IC50) in experiment [1] turned out to be 2400 nM; in experiment [2], 27 nM.

Turning to `CCCc1ccccc1NC(=O)N(C(C)c1ccccc1)C1CCCn2c1nc1cc(F)c(F)cc1c2=O` (stereo not shown) [Example 28, 1-(2,3-Difluoro-11-oxo-6,8,9,11-tetrahydro-7H-pyrido[2,1-b]quinazolin-6-yl)-1-(1-phenyl-ethyl)-3-(2-n-propyl-phenyl)-urea], the half-maximal inhibitory concentration (IC50) in experiment [1] was 153 nM; in experiment [2], 17 nM.

Consider `CCc1ccccc1NC(=O)N(C(C)c1ccccc1)C1CCCn2c1nc1cc(F)c(F)cc1c2=O` (stereo not shown) [Example 30, 1-(2,3-Difluoro-11-oxo-6,8,9,11-tetrahydro-7H-pyrido[2,1-b]quinazolin-6-yl)-3-(2-ethyl-phenyl)-1-(1-phenyl-ethyl)-urea], for which the IC50 in experiment [1] worked out at 261 nM; in experiment [2] it was 16 nM.

For `CCCc1ccccc1NC(=O)N(C(C)c1ccccc1)C1CCCn2c1nc1cc(F)ccc1c2=O` (stereo not shown) [Example 33, 1-(3-Fluoro-11-oxo-6,8,9,11-tetrahydro-7H-pyrido[2,1-b]quinazolin-6-yl)-1-(1-phenyl-ethyl)-3-(2-n-propyl-phenyl)-urea], the half-inhibitory concentration (IC50) in experiment [1] turned out to be 127 nM; in experiment [2], 18 nM.

On to `CC(c1ccccc1)N(C(=O)Nc1ccccc1OC(F)(F)F)C1CCn2c1nc1cccc(Cl)c1c2=O` (stereo not shown) [Example 40], for which the values for the IC50 in experiment [1] and in experiment [2] were 37 nM and 14 nM, respectively.

As for `CC(c1ccccc1)N(C(=O)Nc1ccccc1-c1ccccc1)C1CCn2c1nc1cccc(Cl)c1c2=O` (stereo not shown) [Example 41, 3-Biphenyl-2-yl-1-(8-chloro-9-oxo-1,2,3,9-tetrahydro-pyrrolo[2,1-b]quinazolin-3-yl)-1-(1-phenyl-ethyl)-urea], the results for the IC50 in experiment [1] and in experiment [2] were 52 nM and 14 nM, respectively.

`CCCc1ccccc1NC(=O)N(C(C)c1ccccc1)C1CCn2c1nc1cccc(Cl)c1c2=O` (stereo not shown) [Example 44, 1-(8-Chloro-9-oxo-1,2,3,9-tetrahydro-pyrrolo[2,1-b]quinazolin-3-yl)-1-(1-phenyl-ethyl)-3-(2-n-propyl-phenyl)-urea]: the IC50 worked out at 67 nM in experiment [1] and 27 nM in experiment [2].

`C[C@@H](c1ccccc1)N(C(=O)Nc1ccccc1OC(F)(F)F)C1CCn2c1nc1cccc(C(F)(F)F)c1c2=O` (stereo partly drawn) [Example 49, 1-(9-Oxo-8-trifluoromethyl-1,2,3,9-tetrahydro-pyrrolo[2,1-b]quinazolin-3-yl)-1-((S)-1-phenyl-ethyl)-3-(2-trifluoromethoxy-phenyl)-urea]: the IC50 was found to be 12 nM in experiment [1] and 16 nM in experiment [2].

For the compound `CCCc1ccccc1NC(=O)N(C1CCn2c1nc1cccc(C(F)(F)F)c1c2=O)[C@@H](C)c1ccccc1` (stereo partly drawn) [Example 50, 1-(9-Oxo-8-trifluoromethyl-1,2,3,9-tetrahydro-pyrrolo[2,1-b]quinazolin-3-yl)-1-((S)-1-phenyl-ethyl)-3-(2-n-propyl-phenyl)-urea], the IC50 in experiment [1] is 14 nM; in experiment [2] it was 18 nM.

Consider `CCc1ccccc1NC(=O)N(C1CCn2c1nc1cccc(C(F)(F)F)c1c2=O)[C@@H](C)c1ccccc1` (stereo partly drawn) [Example 51, 3-(2-Ethyl-phenyl)-1-(9-oxo-8-trifluoromethyl-1,2,3,9-tetrahydro-pyrrolo[2,1-b]quinazolin-3-yl)-1-((S)-1-phenyl-ethyl)-urea], for which the results for the IC50 in experiment [1] and in experiment [2] were 28 nM and 21 nM, respectively.
